Reference: the OligoGym collection
Oligonucleotides are given in HELM: sugar(base)linkage, 5' to 3'; d 2'-deoxyribose, r ribose, m 2'-O-methylribose, p phosphate. ss, as = sense and antisense strand

biological target: Cacnb1 (rat); test: reporter assay of Huesken 2005; conditions: siRNA
Also: test concentration or dose not given here.

Substance	normalised inhibition (eCFP-eYFP dual reporter) [%]
RNA1{r(A)p.r(G)p.r(C)p.r(A)p.r(A)p.r(C)p.r(C)p.r(A)p.r(C)p.r(C)p.r(C)p.r(A)p.r(C)p.r(C)p.r(U)p.r(G)p.r(G)p.r(C)p.r(C)p.d(T)p.d(T)}|RNA2{r(G)p.r(G)p.r(C)p.r(C)p.r(A)p.r(G)p.r(G)p.r(U)p.r(G)p.r(G)p.r(G)p.r(U)p.r(G)p.r(G)p.r(U)p.r(U)p.r(G)p.r(C)p.r(U)p.d(G)p.d(G)}$$$RNA1{StrandType:ss}|RNA2{StrandType:as}$	31.6
RNA1{r(A)p.r(G)p.r(C)p.r(C)p.r(G)p.r(G)p.r(C)p.r(C)p.r(G)p.r(U)p.r(C)p.r(A)p.r(G)p.r(A)p.r(C)p.r(U)p.r(C)p.r(C)p.r(G)p.d(T)p.d(T)}|RNA2{r(C)p.r(G)p.r(G)p.r(A)p.r(G)p.r(U)p.r(C)p.r(U)p.r(G)p.r(A)p.r(C)p.r(G)p.r(G)p.r(C)p.r(C)p.r(G)p.r(G)p.r(C)p.r(U)p.d(C)p.d(G)}$$$RNA1{StrandType:ss}|RNA2{StrandType:as}$	44.2
RNA1{r(A)p.r(G)p.r(C)p.r(U)p.r(C)p.r(U)p.r(C)p.r(U)p.r(A)p.r(A)p.r(A)p.r(A)p.r(C)p.r(C)p.r(U)p.r(C)p.r(G)p.r(C)p.r(U)p.d(T)p.d(T)}|RNA2{r(A)p.r(G)p.r(C)p.r(G)p.r(A)p.r(G)p.r(G)p.r(U)p.r(U)p.r(U)p.r(U)p.r(A)p.r(G)p.r(A)p.r(G)p.r(A)p.r(G)p.r(C)p.r(U)p.d(G)p.d(G)}$$$RNA1{StrandType:ss}|RNA2{StrandType:as}$	56.1
RNA1{r(C)p.r(A)p.r(G)p.r(G)p.r(A)p.r(G)p.r(A)p.r(U)p.r(G)p.r(A)p.r(G)p.r(G)p.r(U)p.r(G)p.r(C)p.r(C)p.r(A)p.r(G)p.r(U)p.d(T)p.d(T)}|RNA2{r(A)p.r(C)p.r(U)p.r(G)p.r(G)p.r(C)p.r(A)p.r(C)p.r(C)p.r(U)p.r(C)p.r(A)p.r(U)p.r(C)p.r(U)p.r(C)p.r(C)p.r(U)p.r(G)p.d(G)p.d(A)}$$$RNA1{StrandType:ss}|RNA2{StrandType:as}$	83.4
RNA1{r(C)p.r(C)p.r(A)p.r(A)p.r(G)p.r(G)p.r(A)p.r(C)p.r(U)p.r(U)p.r(C)p.r(C)p.r(U)p.r(G)p.r(C)p.r(A)p.r(C)p.r(A)p.r(U)p.d(T)p.d(T)}|RNA2{r(A)p.r(U)p.r(G)p.r(U)p.r(G)p.r(C)p.r(A)p.r(G)p.r(G)p.r(A)p.r(A)p.r(G)p.r(U)p.r(C)p.r(C)p.r(U)p.r(U)p.r(G)p.r(G)p.d(G)p.d(C)}$$$RNA1{StrandType:ss}|RNA2{StrandType:as}$	63.2
RNA1{r(C)p.r(C)p.r(A)p.r(C)p.r(C)p.r(C)p.r(A)p.r(A)p.r(U)p.r(C)p.r(C)p.r(G)p.r(C)p.r(U)p.r(G)p.r(C)p.r(U)p.r(G)p.r(A)p.d(T)p.d(T)}|RNA2{r(U)p.r(C)p.r(A)p.r(G)p.r(C)p.r(A)p.r(G)p.r(C)p.r(G)p.r(G)p.r(A)p.r(U)p.r(U)p.r(G)p.r(G)p.r(G)p.r(U)p.r(G)p.r(G)p.d(C)p.d(G)}$$$RNA1{StrandType:ss}|RNA2{StrandType:as}$	81.5
RNA1{r(C)p.r(C)p.r(C)p.r(G)p.r(C)p.r(C)p.r(A)p.r(A)p.r(G)p.r(A)p.r(C)p.r(A)p.r(C)p.r(C)p.r(U)p.r(U)p.r(U)p.r(G)p.r(A)p.d(T)p.d(T)}|RNA2{r(U)p.r(C)p.r(A)p.r(A)p.r(A)p.r(G)p.r(G)p.r(U)p.r(G)p.r(U)p.r(C)p.r(U)p.r(U)p.r(G)p.r(G)p.r(C)p.r(G)p.r(G)p.r(G)p.d(A)p.d(T)}$$$RNA1{StrandType:ss}|RNA2{StrandType:as}$	57.6
RNA1{r(C)p.r(C)p.r(U)p.r(G)p.r(G)p.r(A)p.r(C)p.r(G)p.r(A)p.r(G)p.r(A)p.r(A)p.r(C)p.r(C)p.r(A)p.r(A)p.r(U)p.r(U)p.r(G)p.d(T)p.d(T)}|RNA2{r(C)p.r(A)p.r(A)p.r(U)p.r(U)p.r(G)p.r(G)p.r(U)p.r(U)p.r(C)p.r(U)p.r(C)p.r(G)p.r(U)p.r(C)p.r(C)p.r(A)p.r(G)p.r(G)p.d(A)p.d(T)}$$$RNA1{StrandType:ss}|RNA2{StrandType:as}$	80.2
